Test results from article PMC10726367 (Journal of Medicinal Chemistry, 2023).

Legend:
SERCA2a = molecular target: T1, SERCA2a (Mus musculus, UniProt O55143); assay: Caffeine-induced Ca2+ release assay in HL-1 cells (FLIPR Calcium 6); format: cell-based; details: HL-1 cells, 2 h incubation at various concentrations, 10 mM caffeine
T1 construct: host or cells: HL-1 cells
Text: It is known that caffeine stimulates the release of calcium from intracellular stores in cells by acting as a RyR activator.[39],[40] The binding site for caffeine is located on the cytosolic side of the protein between the C-terminal and the S2S3 domain.[41] When caffeine binds to RyR2, it interacts with specific amino acids on the protein, which causes conformational changes in the protein’s structure.[42] This opens the RyR2 channel pore, enabling the mass release of calcium ions from the SR. We investigated the effect of caffeine-induced Ca^2+ release in HL-1 cells treated with cytosolic Ca^2+ indicator FLIPR Calcium 6 (Molecular Devices). The HL-1 cell line is an immortalized mouse cardiomyocyte cell line commonly used to study the effects of various substances on cell function.[43] If the tested compound modulates SERCA2a activation, it will cause an increase in Ca^2+ concentration in the SR and the effect of a fixed dose of caffeine on SR Ca^2+ release will be potentiated by increasing doses of a proposed SERCA activator.[26] As a positive control, we used CDN1163, a small-molecule SERCA activator, which is at present in a clinical trial due to its potential therapeutic use for certain cardiac conditions.[27]
HL-1 cells (50,000 per well) were cultivated for 24 h in black-walled, clear-bottom 96-well microplates (Corning, Amsterdam, The Netherlands) covered with fibronectin/gelatin (Merck KGaA, Darmstadt, Germany) in a humidified incubator at 37 °C and 5% CO2.
Changes in Ca^2+ concentration were measured on a multiwell plate reader TECAN Spark 20 M using a FLIPR 6 Calcium Assay Kit from Molecular Devices (Molecular Devices LLC, München, Germany) at 37 °C. The 1000 × stock solutions of the test compounds were prepared in DMSO. A 100 μL solution of test compound in Tyrode’s solution containing FLIPR Calcium 6 dye was incubated for 2 h at 37 °C and 5% CO2 in a humidified incubator. The time courses were recorded in each well. Fluorescence was evoked at 485 nm excitation wavelength and read out in a bottom-read mode at 525 nm. Data were recorded every 2 s, exposure −20 flashes, excitation bandwidth −10 nm, emission bandwidth −15 nm. To initiate Ca^2+ influx, 25 μL of 50 mM caffeine solution in Tyrode’s solution containing 2 mM CaCl2 was injected in each well (speed 100 μL/s) at the 10 s time point, resulting in 10 mM final concentration in the well. The differences between the caffeine-induced peak minus basal fluorescence, ΔFCaff, were taken into account for the analysis. The Tyrode’s solution +0.1 v/v% DMSO was used as a control. The dose–response curves were calculated using the software package GraphPad Prism version 8.3.1. All data are presented as mean ± SD from eight independent experiments. Y = bottom + (top – bottom)/(1 + 10^((LogEC50 – X) × HillSlope)) was used, where HillSlope describes the steepness of the curve and top and bottom are plateaus in the units of the Y axis.

[1] = CytoTox-Glo Cytotoxicity Assay; format: cell-based; details: mouse; HL-1 cells, 100 μM solutions, 24 h incubation
Protocol: Cell viability was assessed using the CytoTox-Glo Cytotoxicity Assay according to the manufacturing procedure (Promega GmbH). Briefly, HL-1 cells were cultivated for 24 h in black-walled, clear-bottom 96-well microplates (Corning) covered with fibronectin in DMEM, containing different concentrations of the tested compound (10,000 cells/well). Luminescence of a luminogenic peptide substrate was measured before and after the addition of the lysis reagent (digitonin). The viable cell contribution was determined by a subtractive method. 0.1% DMSO-treated cells were taken as a control.

RyR2 = molecular target: T2, RyR2 (Mus musculus, UniProt E9Q401); assay: Time-lapse [Ca2+]ER assay (RyR2 R-CEPIA1er assay) in HEK-293 cells with inducible WT RyR2; format: cell-based; details: for effect on [Ca2+]ER / R-CEPIA1er fluorescence (F/F0): 25 μM, vs 0.1 v/v% DMSO
T2 construct: expressed in transfected cells; host or cells: HEK-293 cells stably expressing R-CEPIA1er with doxycycline-inducible WT RyR2
Text: To assess the functional potency of novel agents for modulating RyR2 channel activity, we measured changes in Ca^2+ levels in ER of HEK-293 cells with inducible expression of wild-type RyR2 (WT RyR2).[33],[34] Because the expression of WT RyR2 introduces an additional spontaneous Ca^2+ leak from the ER, these cells are suitable for our purpose of testing potential RyR2 stabilizers.[35] The cells additionally stably express the Ca^2+ fluorescence indicator R-CEPIA1er, which is a genetically encoded sensor protein of Ca^2+ in the ER (the cell line was a gift from T. Murayama, Department of Pharmacology, Juntendo University School of Medicine, Tokyo, Japan).[36]
The addition of these compounds, which are known to inhibit excessive cardiac RyR2 activity, should reduce Ca^2+ leak from the ER, thus increasing the R-CEPIA1er fluorescence.
The fluorescence plate reader [Ca^2+]ER assay was performed according to the slightly modified protocol of Murayama and Kurebayashi.[36] […] After the cells were inducted with doxycycline for 24 h, changes in ER calcium concentrations [Ca^2+]ER were measured on a multiwell plate reader TECAN Spark 20 M at 37 °C. The 1000 × stock solutions of the test compounds were prepared in DMSO. Briefly, the culture medium was removed and 100 μL of Tyrode’s solution containing 2 mM CaCl2 was added to the cells. The time courses were recorded in each well. Fluorescence was evoked by a 560 nm excitation wavelength and collected in a bottom-read mode at 610 nm. Data was recorded every 10 s, exposure −20 flashes, excitation bandwidth −20 nm, emission bandwidth −20 nm. 100 μL of 0–100 μM solution of test compound in Tyrode’s solution containing 2 mM CaCl2 was injected in each well (speed 100 μL/s) at the 90 s time point. […] The 0.1 v/v% DMSO and 2 mM CaCl2 Tyrode’s solution was used as a control.
The dose–response curves were calculated using the software package GraphPad Prism version 8.3.1. (GraphPad Software, Inc.). All data are presented as mean ± SD in three independent experiments. Y = bottom + (top – bottom)/(1 + 10^((LogEC50 – X) × HillSlope)) was used, where HillSlope describes the steepness of the curve, and top and bottom are plateaus in the units of the Y-axis.

[2] = Membrane permeability, PermeaPad Plate (cell-free transport model); format: in vitro ADME; details: for Pe: 24 h, room temperature; for Pe class (low/medium/high; poor): class word printed beside Pe, no key given
Protocol: Membrane permeability was assessed using PermeaPad Plate according to the manufacturing procedure (innoME GmbH, Espelkamp, Germany). Briefly, 200 μL of water was added into the acceptor plate. 200 μL of 100–500 μM test compound in water was added directly to the well membranes of the donor plate. The donor plate contains a biomimetic membrane for simulating passive mass transfer through different barriers in the body. Then, the donor plate was placed into the acceptor plate wells and incubated at room temperature for 24 h in the dark. To determine the peak absorbance of test compounds, absorbance spectra of acceptor solutions and initial solutions for each test compound were read out. The permeability rate (Pe) was calculated using the formula:
[drawing 1] , where ODA is the absorbance of acceptor solution and ODE is the absorbance of the standard solution; if the compound is able to permeabilize the membrane and fully reach equilibrium, 250 μM will be the final concentration of solution in the donor and acceptor wells. The coefficient C was calculated using the formula:
[drawing 2] , where VA is the acceptor volume (cm^3), VD is the donor volume (cm^3), the membrane area is 0.24 cm^2, and the time is 86,400 s.

T1 sequence (O55143 1-998 isoform O55143-2): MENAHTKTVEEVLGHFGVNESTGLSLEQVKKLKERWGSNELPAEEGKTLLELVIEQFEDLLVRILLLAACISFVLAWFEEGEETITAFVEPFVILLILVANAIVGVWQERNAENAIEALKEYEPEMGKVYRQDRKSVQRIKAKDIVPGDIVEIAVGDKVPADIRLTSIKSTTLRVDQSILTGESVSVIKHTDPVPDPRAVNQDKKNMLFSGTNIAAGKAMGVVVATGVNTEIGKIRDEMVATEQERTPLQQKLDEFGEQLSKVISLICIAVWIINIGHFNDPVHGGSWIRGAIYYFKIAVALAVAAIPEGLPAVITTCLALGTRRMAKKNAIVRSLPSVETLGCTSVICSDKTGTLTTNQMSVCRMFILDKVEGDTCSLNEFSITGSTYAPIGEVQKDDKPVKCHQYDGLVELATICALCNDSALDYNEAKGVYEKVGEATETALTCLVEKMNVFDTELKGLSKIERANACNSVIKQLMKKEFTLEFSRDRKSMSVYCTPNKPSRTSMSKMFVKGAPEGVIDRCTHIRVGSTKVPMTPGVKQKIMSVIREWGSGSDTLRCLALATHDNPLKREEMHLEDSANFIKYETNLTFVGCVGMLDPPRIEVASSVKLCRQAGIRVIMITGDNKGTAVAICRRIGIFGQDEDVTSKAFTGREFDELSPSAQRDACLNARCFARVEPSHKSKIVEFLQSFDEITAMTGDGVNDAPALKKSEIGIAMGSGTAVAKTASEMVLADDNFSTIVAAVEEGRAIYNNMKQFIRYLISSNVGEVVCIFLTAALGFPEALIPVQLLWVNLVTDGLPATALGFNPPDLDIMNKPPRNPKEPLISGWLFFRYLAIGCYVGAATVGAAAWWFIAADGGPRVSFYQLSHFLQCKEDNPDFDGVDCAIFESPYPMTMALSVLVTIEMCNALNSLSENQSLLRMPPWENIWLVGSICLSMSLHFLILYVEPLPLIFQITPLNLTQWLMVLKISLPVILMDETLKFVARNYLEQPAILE

Cc1ccc2cccc(NC(=O)c3ccc(OC(C)C)cc3)c2n1 [CDN1163, reference compound]
effect on caffeine-induced Ca2+ release (in words) (SERCA2a): clear dependence of the magnitude of the caffeine effect from the concentration of CDN1163

COc1ccc2c(c1)CN(C(=O)C(=O)O)CCS2 [S36, reference compound]
viability at 24 h, 100 μM [1]: 94% | effect on caffeine-induced Ca2+ release (in words) (SERCA2a): no concentration-dependent effect | RyR2 effect class (RyR2; 25 μM (S107 1 mM per Figure 2), HEK-293 RyR2 R-CEPIA1er cells): +++ | effect on [Ca2+]ER / R-CEPIA1er fluorescence (F/F0) (RyR2): increase in R-CEPIA1er fluorescence | Pe [2]: 1.0 10^–6 cm/s | Pe class (low/medium/high; poor) [2]: poor permeability and low

COc1ccc2c(c1)CN(C)CCS2 [S107, 4-methyl-7-methoxy-2,3,4,5-tetrahydro-1,4-benzothiazepine, reference compound]
viability at 24 h, 100 μM [1]: 98% | effect on caffeine-induced Ca2+ release (in words) (SERCA2a): did not show any effects on SR Ca^2+ content | Pe [2]: 1.2 10^–6 cm/s | Pe class (low/medium/high; poor) [2]: medium

O=C1CN(/N=C/c2ccc(-c3ccc([N+](=O)[O-])cc3)o2)C(=O)N1 [dantrolene, reference compound]
effect on [Ca2+]ER / R-CEPIA1er fluorescence (F/F0) (RyR2): increase in R-CEPIA1er fluorescence
